Laboratory results: patent publication US20250161212A1, “LIQUID PHARMACEUTICAL FORMULATION OF OMEPRAZOLE OR ESOMEPRAZOLE” (ALKALOID AD SKOPJE, priority 2022, published 2025)

Assay: Stability study of esomeprazole sodium dissolved in DMSO stored at 25° C. (impurities)
Format: physicochemical
Experimental: Example 9—Stability Study Stability results for esomeprazole sodium dissolved in DMSO stored at 25° C.: • Key: • Imp D: omeprazole impurity D: [drawing 3] • RRT: Relative retention time.

[1] = 1.5 months, second table, Imp-s > 0.02%
[2] = 3 months, second table, Imp-s > 0.02%
[3] = 5 months, second table, Imp-s > 0.02%
[4] = 9 months, second table, Imp-s > 0.02%
[5] = 13 months, second table, Imp-s > 0.02%
[6] = Initial, second table, Imp-s > 0.02%
[7] = in DMSO, 25° C., 1.5 months, first table
[8] = in DMSO, 25° C., 5 months, first table
[9] = in DMSO, 25° C., Initial, first table

Q: For `COc1ccc2nc([S@@+]([O-])Cc3ncc(C)c(OC)c3C)[nH]c2c1` (single isomer, unassigned) [esomeprazole sodium], which Total impurities (1.5 months, second table) is on record?
A: The Total impurities was 0.14%.

Q: What about the “Imp D (omeprazole impurity D)” value [1] of the same compound?
A: The value was 0.03%.

Q: What about the “impurity RRT 1.23” value [1] of the same compound?
A: The value was 0.03%.

Q: And the Total impurities (3 months, second table)?
A: Its Total impurities is 0.17%.

Q: And the “Imp D (omeprazole impurity D)” value [2]?
A: The value was 0.03%.

Q: What about the “impurity RRT 1.23” value [2] of the same compound?
A: Its value is 0.03%.

Q: What about the Total impurities (5 months, second table) of the same compound?
A: Its Total impurities is 0.16%.

Q: And the “Imp D (omeprazole impurity D)” value [3]?
A: The value was 0.03%.

Q: What about the “impurity RRT 1.17” value [3] of the same compound?
A: The value was 0.03%.

Q: And the Total impurities (9 months, second table)?
A: Its Total impurities is 0.25%.

Q: What about the “Imp D (omeprazole impurity D)” value [4] of the same compound?
A: Its value is 0.03%.

Q: What about the “impurity RRT 0.53” value [4] of the same compound?
A: The value was 0.03%.

Q: What about the “impurity RRT 1.23” value [4] of the same compound?
A: Its value is 0.03%.

Q: And the “impurity RRT 1.31” value [4]?
A: Its value is 0.03%.

Q: What about the Total impurities (13 months, second table) of the same compound?
A: The Total impurities was 0.36%.

Q: What about the “Imp D (omeprazole impurity D)” value [5] of the same compound?
A: Its value is 0.03%.

Q: What about the “impurity RRT 0.54” value [5] of the same compound?
A: Its value is 0.04%.

Q: What about the “impurity RRT 0.90” value [5] of the same compound?
A: Its value is 0.04%.

Q: And the “impurity RRT 1.23” value [5]?
A: Its value is 0.03%.

Q: What about the “impurity RRT 1.31” value [5] of the same compound?
A: The value was 0.04%.

Q: What about the “impurity RRT 1.32” value [5] of the same compound?
A: Its value is 0.03%.

Q: And the Total impurities (Initial, second table)?
A: Its Total impurities is 0.12%.

Q: What about the “Imp D (omeprazole impurity D)” value [6] of the same compound?
A: The value was 0.03%.

Q: What about the “impurity RRT 1.23” value [6] of the same compound?
A: Its value is 0.03%.

Q: And the “Imp D (omeprazole impurity D)” value [7]?
A: Its value is “Imp D = 0.03%”.

Q: And the Total impurities [7]?
A: The Total impurities was “Total = 0.14%”.

Q: And the “impurity RRT 1.23” value [7]?
A: The value was “RRT 1.23 = 0.03%”.

Q: What about the “Imp D (omeprazole impurity D)” value [8] of the same compound?
A: Its value is “Imp D = 0.03%”.

Q: What about the Total impurities [8] of the same compound?
A: The Total impurities was “Total = 0.15%”.

Q: What about the “impurity RRT 0.57” value [8] of the same compound?
A: The value was “RRT 0.57 = 0.02%”.

Q: And the “impurity RRT 1.14” value [8]?
A: The value was “RRT 1.14 = 0.02%”.

Q: And the “impurity RRT 1.17” value [8]?
A: The value was “RRT 1.17 = 0.03%”.

Q: And the “impurity RRT 1.23” value [8]?
A: The value was “RRT 1.23 = 0.02%”.

Q: What about the “Imp D (omeprazole impurity D)” value [9] of the same compound?
A: The value was “Imp D = 0.03%”.

Q: And the Total impurities [9]?
A: Its Total impurities is “Total = 0.12%”.

Q: And the “impurity RRT 1.19” value [9]?
A: The value was “RRT 1.19 = 0.02%”.

Q: And the “impurity RRT 1.23” value [9]?
A: The value was “RRT 1.23 = 0.03%”.
